From ChEMBL document CHEMBL5724914, “Linking interpersonal differences in gut microbiota composition and drug biotransformation activity” (2024)

Experiment: (§1) The drug is tested on Z-021 corresponding to metagenome with ENA study accession number: PRJEB37062 and ENA sample accession number: ERS12561820 for biotransformation under anaerobic condition. The drug concentrations were measured over 9 timepoints collected between 0 and 24 hours of incubation by liquid-chromatography-coupled mass spectrometry (LC–MS)
Settings: 2 µM
Also: call rule not given here.

Bacterial Biotransformation | Structure (SMILES)
Compound NOT metabolized | Nc1nc(NC2CC2)c2ncn([C@H]3C=C[C@@H](CO)C3)c2n1.Nc1nc(NC2CC2)c2ncn([C@H]3C=C[C@@H](CO)C3)c2n1.O=S(=O)(O)O [ABACAVIR SULFATE]
Compound NOT metabolized | CCN(CC)CCNC(=O)c1ccc(NC(C)=O)cc1 [ACECAINIDE]
Compound NOT metabolized | O=C1CN2Cc3c(ccc(Cl)c3Cl)N=C2N1 [ANAGRELIDE]

Experiment: (§2) The drug is tested on Z-019 corresponding to rat gut metagenome with ENA study accession number: PRJEB37062 and ENA sample accession number: ERS12561818 for biotransformation under anaerobic condition. The drug concentrations were measured over 9 timepoints collected between 0 and 24 hours of incubation by liquid-chromatography-coupled mass spectrometry (LC–MS)
Settings: 2 µM

Bacterial Biotransformation | Structure (SMILES)
Compound NOT metabolized | Nc1nc(NC2CC2)c2ncn([C@H]3C=C[C@@H](CO)C3)c2n1.Nc1nc(NC2CC2)c2ncn([C@H]3C=C[C@@H](CO)C3)c2n1.O=S(=O)(O)O [ABACAVIR SULFATE]
Compound NOT metabolized | CCN(CC)CCNC(=O)c1ccc(NC(C)=O)cc1 [ACECAINIDE]
Compound NOT metabolized | O=C1CN2Cc3c(ccc(Cl)c3Cl)N=C2N1 [ANAGRELIDE]

Experiment: as §2, with “on Z-018” for “on Z-019”, “to pig” for “to rat”, “number: ERS12561817” for “number: ERS12561818”
Settings: 2 µM

Bacterial Biotransformation | Structure (SMILES)
Compound NOT metabolized | Nc1nc(NC2CC2)c2ncn([C@H]3C=C[C@@H](CO)C3)c2n1.Nc1nc(NC2CC2)c2ncn([C@H]3C=C[C@@H](CO)C3)c2n1.O=S(=O)(O)O [ABACAVIR SULFATE]
Compound NOT metabolized | CCN(CC)CCNC(=O)c1ccc(NC(C)=O)cc1 [ACECAINIDE]
Compound NOT metabolized | O=C1CN2Cc3c(ccc(Cl)c3Cl)N=C2N1 [ANAGRELIDE]

Experiment: as §2, with “on Z-017” for “on Z-019”, “to mouse” for “to rat”, “number: ERS12561816” for “number: ERS12561818”
Settings: 2 µM

Bacterial Biotransformation | Structure (SMILES)
Compound NOT metabolized | Nc1nc(NC2CC2)c2ncn([C@H]3C=C[C@@H](CO)C3)c2n1.Nc1nc(NC2CC2)c2ncn([C@H]3C=C[C@@H](CO)C3)c2n1.O=S(=O)(O)O [ABACAVIR SULFATE]
Compound NOT metabolized | CCN(CC)CCNC(=O)c1ccc(NC(C)=O)cc1 [ACECAINIDE]
Compound NOT metabolized | O=C1CN2Cc3c(ccc(Cl)c3Cl)N=C2N1 [ANAGRELIDE]

Experiment: as §2, with “Z-014” for “Z-019”, “ERS12561814” for “ERS12561818”
Settings: 2 µM

Bacterial Biotransformation | Structure (SMILES)
Compound NOT metabolized | Nc1nc(NC2CC2)c2ncn([C@H]3C=C[C@@H](CO)C3)c2n1.Nc1nc(NC2CC2)c2ncn([C@H]3C=C[C@@H](CO)C3)c2n1.O=S(=O)(O)O [ABACAVIR SULFATE]
Compound NOT metabolized | CCN(CC)CCNC(=O)c1ccc(NC(C)=O)cc1 [ACECAINIDE]
Compound NOT metabolized | O=C1CN2Cc3c(ccc(Cl)c3Cl)N=C2N1 [ANAGRELIDE]

Experiment: as §1, with “Z-010” for “Z-021”, “ERS12561810” for “ERS12561820”
Settings: 2 µM

Bacterial Biotransformation | Structure (SMILES)
Compound metabolized | Nc1nc(NC2CC2)c2ncn([C@H]3C=C[C@@H](CO)C3)c2n1.Nc1nc(NC2CC2)c2ncn([C@H]3C=C[C@@H](CO)C3)c2n1.O=S(=O)(O)O [ABACAVIR SULFATE]
Compound NOT metabolized | CCN(CC)CCNC(=O)c1ccc(NC(C)=O)cc1 [ACECAINIDE]
Compound metabolized | O=C1CN2Cc3c(ccc(Cl)c3Cl)N=C2N1 [ANAGRELIDE]

Experiment: as §1, with “Z-005” for “Z-021”, “ERS12561805” for “ERS12561820”
Settings: 2 µM

Bacterial Biotransformation | Structure (SMILES)
Compound NOT metabolized | Nc1nc(NC2CC2)c2ncn([C@H]3C=C[C@@H](CO)C3)c2n1.Nc1nc(NC2CC2)c2ncn([C@H]3C=C[C@@H](CO)C3)c2n1.O=S(=O)(O)O [ABACAVIR SULFATE]
Compound NOT metabolized | CCN(CC)CCNC(=O)c1ccc(NC(C)=O)cc1 [ACECAINIDE]
Compound NOT metabolized | O=C1CN2Cc3c(ccc(Cl)c3Cl)N=C2N1 [ANAGRELIDE]

Experiment: as §2, with “on Z-001” for “on Z-019”, “to mouse” for “to rat”, “number: ERS12561801” for “number: ERS12561818”
Settings: 2 µM

Bacterial Biotransformation | Structure (SMILES)
Compound NOT metabolized | Nc1nc(NC2CC2)c2ncn([C@H]3C=C[C@@H](CO)C3)c2n1.Nc1nc(NC2CC2)c2ncn([C@H]3C=C[C@@H](CO)C3)c2n1.O=S(=O)(O)O [ABACAVIR SULFATE]
Compound NOT metabolized | CCN(CC)CCNC(=O)c1ccc(NC(C)=O)cc1 [ACECAINIDE]
Compound NOT metabolized | O=C1CN2Cc3c(ccc(Cl)c3Cl)N=C2N1 [ANAGRELIDE]

Experiment: as §2, with “on WLS-170” for “on Z-019”, “to human” for “to rat”, “number: ERS12561762” for “number: ERS12561818”
Settings: 2 µM

Bacterial Biotransformation | Structure (SMILES)
Compound metabolized | Nc1nc(NC2CC2)c2ncn([C@H]3C=C[C@@H](CO)C3)c2n1.Nc1nc(NC2CC2)c2ncn([C@H]3C=C[C@@H](CO)C3)c2n1.O=S(=O)(O)O [ABACAVIR SULFATE]
Compound metabolized | CCN(CC)CCNC(=O)c1ccc(NC(C)=O)cc1 [ACECAINIDE]
Compound metabolized | O=C1CN2Cc3c(ccc(Cl)c3Cl)N=C2N1 [ANAGRELIDE]

Experiment: as §2, with “on WLS-090” for “on Z-019”, “to human” for “to rat”, “number: ERS12561753” for “number: ERS12561818”
Settings: 2 µM

Bacterial Biotransformation | Structure (SMILES)
Compound metabolized | Nc1nc(NC2CC2)c2ncn([C@H]3C=C[C@@H](CO)C3)c2n1.Nc1nc(NC2CC2)c2ncn([C@H]3C=C[C@@H](CO)C3)c2n1.O=S(=O)(O)O [ABACAVIR SULFATE]
Compound metabolized | CCN(CC)CCNC(=O)c1ccc(NC(C)=O)cc1 [ACECAINIDE]
Compound metabolized | O=C1CN2Cc3c(ccc(Cl)c3Cl)N=C2N1 [ANAGRELIDE]

Experiment: as §2, with “on WLS-086” for “on Z-019”, “to human” for “to rat”, “number: ERS12561752” for “number: ERS12561818”
Settings: 2 µM

Bacterial Biotransformation | Structure (SMILES)
Compound metabolized | Nc1nc(NC2CC2)c2ncn([C@H]3C=C[C@@H](CO)C3)c2n1.Nc1nc(NC2CC2)c2ncn([C@H]3C=C[C@@H](CO)C3)c2n1.O=S(=O)(O)O [ABACAVIR SULFATE]
Compound metabolized | CCN(CC)CCNC(=O)c1ccc(NC(C)=O)cc1 [ACECAINIDE]
Compound metabolized | O=C1CN2Cc3c(ccc(Cl)c3Cl)N=C2N1 [ANAGRELIDE]

Experiment: as §2, with “on WLS-082” for “on Z-019”, “to human” for “to rat”, “number: ERS12561751” for “number: ERS12561818”
Settings: 2 µM

Bacterial Biotransformation | Structure (SMILES)
Compound NOT metabolized | Nc1nc(NC2CC2)c2ncn([C@H]3C=C[C@@H](CO)C3)c2n1.Nc1nc(NC2CC2)c2ncn([C@H]3C=C[C@@H](CO)C3)c2n1.O=S(=O)(O)O [ABACAVIR SULFATE]
Compound NOT metabolized | CCN(CC)CCNC(=O)c1ccc(NC(C)=O)cc1 [ACECAINIDE]
Compound metabolized | O=C1CN2Cc3c(ccc(Cl)c3Cl)N=C2N1 [ANAGRELIDE]

Experiment: as §2, with “on WLS-039” for “on Z-019”, “to human” for “to rat”, “number: ERS12561746” for “number: ERS12561818”
Settings: 2 µM

Bacterial Biotransformation | Structure (SMILES)
Compound NOT metabolized | Nc1nc(NC2CC2)c2ncn([C@H]3C=C[C@@H](CO)C3)c2n1.Nc1nc(NC2CC2)c2ncn([C@H]3C=C[C@@H](CO)C3)c2n1.O=S(=O)(O)O [ABACAVIR SULFATE]
Compound NOT metabolized | CCN(CC)CCNC(=O)c1ccc(NC(C)=O)cc1 [ACECAINIDE]
Compound NOT metabolized | O=C1CN2Cc3c(ccc(Cl)c3Cl)N=C2N1 [ANAGRELIDE]

Experiment: as §2, with “on WLS-027” for “on Z-019”, “to human” for “to rat”, “number: ERS12561744” for “number: ERS12561818”
Settings: 2 µM

Bacterial Biotransformation | Structure (SMILES)
Compound NOT metabolized | Nc1nc(NC2CC2)c2ncn([C@H]3C=C[C@@H](CO)C3)c2n1.Nc1nc(NC2CC2)c2ncn([C@H]3C=C[C@@H](CO)C3)c2n1.O=S(=O)(O)O [ABACAVIR SULFATE]
Compound NOT metabolized | CCN(CC)CCNC(=O)c1ccc(NC(C)=O)cc1 [ACECAINIDE]
Compound NOT metabolized | O=C1CN2Cc3c(ccc(Cl)c3Cl)N=C2N1 [ANAGRELIDE]

Settings: human gut metagenome, 24 h, 2 µM

Bacterial Biotransformation | Structure (SMILES)
Compound metabolized | Nc1nc(NC2CC2)c2ncn([C@H]3C=C[C@@H](CO)C3)c2n1.Nc1nc(NC2CC2)c2ncn([C@H]3C=C[C@@H](CO)C3)c2n1.O=S(=O)(O)O [ABACAVIR SULFATE]
Compound NOT metabolized | CCN(CC)CCNC(=O)c1ccc(NC(C)=O)cc1 [ACECAINIDE]
Compound NOT metabolized | O=C1CN2Cc3c(ccc(Cl)c3Cl)N=C2N1 [ANAGRELIDE]

Settings: human gut metagenome, 24 h, 2 µM
Remark: another data set of the same source

Bacterial Biotransformation | Structure (SMILES)
Compound metabolized | Nc1nc(NC2CC2)c2ncn([C@H]3C=C[C@@H](CO)C3)c2n1.Nc1nc(NC2CC2)c2ncn([C@H]3C=C[C@@H](CO)C3)c2n1.O=S(=O)(O)O [ABACAVIR SULFATE]
Compound NOT metabolized | CCN(CC)CCNC(=O)c1ccc(NC(C)=O)cc1 [ACECAINIDE]
Compound NOT metabolized | O=C1CN2Cc3c(ccc(Cl)c3Cl)N=C2N1 [ANAGRELIDE]

Settings: human gut metagenome, 24 h, 2 µM
Remark: another data set of the same source

Bacterial Biotransformation | Structure (SMILES)
Compound metabolized | Nc1nc(NC2CC2)c2ncn([C@H]3C=C[C@@H](CO)C3)c2n1.Nc1nc(NC2CC2)c2ncn([C@H]3C=C[C@@H](CO)C3)c2n1.O=S(=O)(O)O [ABACAVIR SULFATE]
Compound NOT metabolized | CCN(CC)CCNC(=O)c1ccc(NC(C)=O)cc1 [ACECAINIDE]
Compound NOT metabolized | O=C1CN2Cc3c(ccc(Cl)c3Cl)N=C2N1 [ANAGRELIDE]

Settings: human gut metagenome, 24 h, 2 µM
Remark: another data set of the same source

Bacterial Biotransformation | Structure (SMILES)
Compound metabolized | Nc1nc(NC2CC2)c2ncn([C@H]3C=C[C@@H](CO)C3)c2n1.Nc1nc(NC2CC2)c2ncn([C@H]3C=C[C@@H](CO)C3)c2n1.O=S(=O)(O)O [ABACAVIR SULFATE]
Compound NOT metabolized | CCN(CC)CCNC(=O)c1ccc(NC(C)=O)cc1 [ACECAINIDE]
Compound metabolized | O=C1CN2Cc3c(ccc(Cl)c3Cl)N=C2N1 [ANAGRELIDE]

Settings: human gut metagenome, 24 h, 2 µM
Remark: another data set of the same source

Bacterial Biotransformation | Structure (SMILES)
Compound NOT metabolized | Nc1nc(NC2CC2)c2ncn([C@H]3C=C[C@@H](CO)C3)c2n1.Nc1nc(NC2CC2)c2ncn([C@H]3C=C[C@@H](CO)C3)c2n1.O=S(=O)(O)O [ABACAVIR SULFATE]
Compound NOT metabolized | CCN(CC)CCNC(=O)c1ccc(NC(C)=O)cc1 [ACECAINIDE]
Compound metabolized | O=C1CN2Cc3c(ccc(Cl)c3Cl)N=C2N1 [ANAGRELIDE]

Settings: human gut metagenome, 24 h, 2 µM
Remark: another data set of the same source

Bacterial Biotransformation | Structure (SMILES)
Compound metabolized | Nc1nc(NC2CC2)c2ncn([C@H]3C=C[C@@H](CO)C3)c2n1.Nc1nc(NC2CC2)c2ncn([C@H]3C=C[C@@H](CO)C3)c2n1.O=S(=O)(O)O [ABACAVIR SULFATE]
Compound metabolized | CCN(CC)CCNC(=O)c1ccc(NC(C)=O)cc1 [ACECAINIDE]
Compound metabolized | O=C1CN2Cc3c(ccc(Cl)c3Cl)N=C2N1 [ANAGRELIDE]
